Measured values from patent US12077503B2, “Substituted cyclic amides and their use as herbicides” (FMC CORPORATION, priority 2015, dated 2024).

Columns and labels:
Format in all cases: in vivo
[1] = tested on: Kochia (Kochia scoparia); assay: Test A preemergence; conditions: for Plant response rating, Kochia: 125 g ai/ha; for Kochia plant response rating (0 to 100 scale, 0 is no effect, 100 is complete control): 500 g ai/ha, visual injury approx. 10 d
Description: (§1) Seeds of plant species selected from barnyardgrass (Echinochloa crus-galli), Kochia (Kochia scoparia), ragweed (common ragweed, Ambrosia elatior), ryegrass, Italian (Italian ryegrass, Lolium multiflorum), crabgrass, large (Digitaria sanguinalis), giant foxtail (Setaria faberii), green foxtail (Setaria viridis), morningglory (Ipomoea spp.), pigweed (Amaranthus retroflexus), velvetleaf (Abutilon theophrasti), wheat (Triticum aestivum), and corn (Zea mays) were planted into a blend of loam soil and sand and treated preemergence with a directed soil spray using test chemicals formulated in anon-phytotoxic solvent mixture which included a surfactant.
(§2) At the same time, plants selected from these crop and weed species and also blackgrass (Alopecurus myosuroides), and Galium (catchweed bedstraw, Galium aparine) were planted in pots containing the same blend of loam soil and sand and treated with postemergence applications of test chemicals formulated in the same manner. Plants ranged in height from 2 to 10 cm and were in the one- to two-leaf stage for the postemergence treatment. Treated plants and untreated controls were maintained in a greenhouse for approximately 10 d, after which time all treated plants were compared to untreated controls and visually evaluated for injury. Plant response ratings, summarized in Table A, are based on a 0 to 100 scale where 0 is no effect and 100 is complete control. A dash (-) response means no test result.

[2] = tested on: barnyardgrass (Echinochloa crus-galli); assay: Test A preemergence; conditions: for Plant response rating, Barnyardgrass: 125 g ai/ha; for Barnyardgrass plant response rating (0 to 100 scale, 0 is no effect, 100 is complete control): 500 g ai/ha, visual injury approx. 10 d
Description: as §1, §2

[3] = tested on: giant foxtail (Setaria faberii); assay: Test A preemergence; conditions: for Plant response rating, Foxtail, Giant: 125 g ai/ha; for Foxtail, Giant plant response rating (0 to 100 scale, 0 is no effect, 100 is complete control): 500 g ai/ha, visual injury approx. 10 d
Description: as §1, §2

[4] = tested on: pigweed (Amaranthus retroflexus); assay: Test A preemergence; conditions: for Plant response rating, Pigweed: 125 g ai/ha; for Pigweed plant response rating (0 to 100 scale, 0 is no effect, 100 is complete control): 500 g ai/ha, visual injury approx. 10 d
Description: as §1, §2

[5] = tested on: ragweed (common ragweed, Ambrosia elatior); assay: Test A preemergence; conditions: for Plant response rating, Ragweed: 125 g ai/ha; for Ragweed plant response rating (0 to 100 scale, 0 is no effect, 100 is complete control): 500 g ai/ha, visual injury approx. 10 d
Description: as §1, §2

[6] = tested on: ryegrass, Italian (Italian ryegrass, Lolium multiflorum); assay: Test A preemergence; conditions: for Plant response rating, Ryegrass, Italian: 125 g ai/ha; for Ryegrass, Italian plant response rating (0 to 100 scale, 0 is no effect, 100 is complete control): 500 g ai/ha, visual injury approx. 10 d
Description: as §1, §2

[7] = tested on: Galium (catchweed bedstraw, Galium aparine); assay: Test A postemergence; conditions: for Galium plant response rating: visual injury rating on 0 to 100 scale (0 no effect, 100 complete control), approx. 10 d
Description: as §1, §2

[8] = tested on: Kochia (Kochia scoparia); assay: Test A postemergence; conditions: for Kochia plant response rating: visual injury rating on 0 to 100 scale (0 no effect, 100 complete control), approx. 10 d
Description: as §1, §2

[9] = tested on: barnyardgrass (Echinochloa crus-galli); assay: Test A postemergence; conditions: for Barnyardgrass plant response rating: 125 g ai/ha, visual injury rating on 0 to 100 scale (0 no effect, 100 complete control), approx. 10 d; for Plant response rating, Barnyardgrass: 500 g ai/ha
Description: as §1, §2

[10] = tested on: blackgrass (Alopecurus myosuroides); assay: Test A postemergence; conditions: for Blackgrass plant response rating: 125 g ai/ha, visual injury rating on 0 to 100 scale (0 no effect, 100 complete control), approx. 10 d; for Plant response rating, Blackgrass: 500 g ai/ha
Description: as §1, §2

[11] = tested on: corn (Zea mays); assay: Test A postemergence; conditions: for Corn plant response rating: visual injury rating on 0 to 100 scale (0 no effect, 100 complete control), approx. 10 d
Description: as §1, §2

[12] = tested on: giant foxtail (Setaria faberii); assay: Test A postemergence; conditions: for Foxtail, Giant plant response rating: visual injury rating on 0 to 100 scale (0 no effect, 100 complete control), approx. 10 d
Description: as §1, §2

[13] = tested on: pigweed (Amaranthus retroflexus); assay: Test A postemergence; conditions: for Pigweed plant response rating: visual injury rating on 0 to 100 scale (0 no effect, 100 complete control), approx. 10 d
Description: as §1, §2

[14] = tested on: ragweed (common ragweed, Ambrosia elatior); assay: Test A postemergence; conditions: for Ragweed plant response rating: visual injury rating on 0 to 100 scale (0 no effect, 100 complete control), approx. 10 d
Description: as §1, §2

[15] = tested on: ryegrass, Italian (Italian ryegrass, Lolium multiflorum); assay: Test A postemergence; conditions: for Ryegrass, Italian plant response rating: visual injury rating on 0 to 100 scale (0 no effect, 100 complete control), approx. 10 d
Description: as §1, §2

[16] = tested on: wheat (Triticum aestivum); assay: Test A postemergence; conditions: for Wheat plant response rating: visual injury rating on 0 to 100 scale (0 no effect, 100 complete control), approx. 10 d
Description: as §1, §2

[17] = tested on: barnyardgrass (Echinochloa crus-galli); assay: Test B flooded paddy test; conditions: Flood, 250 g ai/ha; 0 to 100 scale where 0 is no effect and 100 is complete control; 13 to 15 d
In short: (§3)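 Plants at 2-leaf stage flooded to 3 cm above soil, with compounds applied directly to paddy water and that depth maintained. Plants kept in greenhouse 13–15 d. Visual rating versus controls on a 0 (no effect) to 100 (complete control) scale.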

[18] = tested on: ducksalad (Heteranthera limosa); assay: Test B flooded paddy test; conditions: Flood, 250 g ai/ha; 0 to 100 scale where 0 is no effect and 100 is complete control; 13 to 15 d
In short: as §3

[19] = tested on: rice (Oryra sativa); assay: Test B flooded paddy test; conditions: Flood, 250 g ai/ha; 0 to 100 scale where 0 is no effect and 100 is complete control; 13 to 15 d
In short: as §3

[20] = tested on: sedge, umbrella (small-flower umbrella sedge, Cyperus difformis); assay: Test B flooded paddy test; conditions: Flood, 250 g ai/ha; 0 to 100 scale where 0 is no effect and 100 is complete control; 13 to 15 d
In short: as §3

[21] = preemergence, 0 to 100 scale (0 no effect, 100 complete control)
[22] = 500 g ai/ha, postemergence, 0 to 100 scale, 0 no effect, 100 complete control
[23] = postemergence, 0 to 100 scale, 0 no effect, 100 complete control
[24] = Preemergence, visual injury after approximately 10 d, 0 to 100 scale where 0 is no effect and 100 is complete control
[25] = 125 g ai/ha, postemergence, visual rating after approx. 10 d, 0 to 100 scale (0 no effect, 100 complete control)
[26] = Postemergence, 500 g ai/ha, 0 to 100 scale where 0 is no effect and 100 is complete control
[27] = Postemergence, 0 to 100 scale where 0 is no effect and 100 is complete control

Cc1cc(C2CN(C)C(=O)C2C(=O)Nc2cccc(F)c2F)ccc1F (stereo not drawn) [Compound 403]
100: Plant response rating, Ducksalad [18]
75: Plant response rating, Barnyardgrass [17]
20: Plant response rating, Ryegrass, Italian [6, 21]
80: Kochia plant response rating (0 to 100 scale, 0 is no effect, 100 is complete control) ([1]; Preemergence) | Plant response rating, Wheat [16, 22]
70: Plant response rating, Kochia [1, 21] | Ryegrass, Italian plant response rating (0 to 100 scale, 0 is no effect, 100 is complete control) ([6]; Preemergence) | Corn plant response rating ([11]; 125 g ai/ha, postemergence) | Plant response rating, Ryegrass, Italian [15, 22] | Wheat plant response rating ([16]; 125 g ai/ha, postemergence)
50: Plant response rating, Ragweed [5, 21] | Galium plant response rating ([7]; 125 g ai/ha, postemergence) | Blackgrass plant response rating ([10]; postemergence) | Pigweed plant response rating ([13]; 125 g ai/ha, postemergence) | Plant response rating, Pigweed [13, 22] | Ryegrass, Italian plant response rating ([15]; 125 g ai/ha, postemergence)
60: Pigweed plant response rating (0 to 100 scale, 0 is no effect, 100 is complete control) ([4]; Preemergence) | Ragweed plant response rating (0 to 100 scale, 0 is no effect, 100 is complete control) ([5]; Preemergence) | Plant response rating, Galium [7, 22] | Plant response rating, Kochia [8, 22] | Plant response rating, Blackgrass [10, 23]
30: Plant response rating, Pigweed [4, 21] | Plant response rating, Ragweed [14, 22]
0: Ragweed plant response rating ([14]; 125 g ai/ha, postemergence) | Plant response rating, Rice [19] | Plant response rating, Sedge, Umbrella [20]
40: Kochia plant response rating ([8]; 125 g ai/ha, postemergence)
90: Plant response rating, Barnyardgrass [2, 21] | Barnyardgrass plant response rating (0 to 100 scale, 0 is no effect, 100 is complete control) ([2]; Preemergence) | Plant response rating, Foxtail, Giant [3, 21] | Foxtail, Giant plant response rating (0 to 100 scale, 0 is no effect, 100 is complete control) ([3]; Preemergence) | Barnyardgrass plant response rating ([9]; postemergence) | Plant response rating, Barnyardgrass [9, 23] | Plant response rating, Corn [11, 22] | Foxtail, Giant plant response rating ([12]; 125 g ai/ha, postemergence) | Plant response rating, Foxtail, Giant [12, 22]

COc1c(F)ccc(NC(=O)C2C(=O)NCC2c2cc(F)cc(F)c2)c1F (racemic) [Compound 541]
0: Plant response rating, Kochia [1, 24] | Plant response rating, Pigweed [4, 24] | Pigweed plant response rating (0 to 100 scale, 0 is no effect, 100 is complete control) ([4]; Preemergence) | Plant response rating, Ragweed [5, 24] | Ragweed plant response rating (0 to 100 scale, 0 is no effect, 100 is complete control) ([5]; Preemergence) | Plant response rating, Ryegrass, Italian [6, 24] | Plant response rating, Kochia [8, 25] | Plant response rating, Corn [11, 25] | Plant response rating, Pigweed [13, 25] | Plant response rating, Pigweed [13, 26] | Plant response rating, Ragweed [14, 25] | Plant response rating, Rice [19] | Plant response rating, Sedge, Umbrella [20]
75: Plant response rating, Ducksalad [18]
40: Plant response rating, Ryegrass, Italian [15, 26]
90: Plant response rating, Barnyardgrass [2, 24] | Barnyardgrass plant response rating (0 to 100 scale, 0 is no effect, 100 is complete control) ([2]; Preemergence) | Plant response rating, Foxtail, Giant [3, 24] | Foxtail, Giant plant response rating (0 to 100 scale, 0 is no effect, 100 is complete control) ([3]; Preemergence) | Barnyardgrass plant response rating ([9]; postemergence) | Plant response rating, Barnyardgrass [9, 27] | Plant response rating, Foxtail, Giant [12, 26]
35: Plant response rating, Barnyardgrass [17]
30: Plant response rating, Galium [7, 25] | Plant response rating, Kochia [8, 26] | Blackgrass plant response rating ([10]; postemergence) | Plant response rating, Ragweed [14, 26]
50: Plant response rating, Galium [7, 26]
20: Kochia plant response rating (0 to 100 scale, 0 is no effect, 100 is complete control) ([1]; Preemergence) | Ryegrass, Italian plant response rating (0 to 100 scale, 0 is no effect, 100 is complete control) ([6]; Preemergence) | Plant response rating, Ryegrass, Italian [15, 25] | Plant response rating, Wheat [16, 25]
80: Plant response rating, Foxtail, Giant [12, 25] | Plant response rating, Wheat [16, 26]
60: Plant response rating, Blackgrass [10, 27] | Plant response rating, Corn [11, 26]

CC(C)c1ccc(C2CNC(=O)C2C(=O)Nc2ccccc2S(C)(=O)=O)cc1 (racemic) [Compound 500]
80: Plant response rating, Foxtail, Giant [3, 24]
20: Pigweed plant response rating (0 to 100 scale, 0 is no effect, 100 is complete control) ([4]; Preemergence) | Plant response rating, Kochia [8, 26] | Plant response rating, Corn [11, 26] | Plant response rating, Wheat [16, 26]
90: Foxtail, Giant plant response rating (0 to 100 scale, 0 is no effect, 100 is complete control) ([3]; Preemergence)
40: Barnyardgrass plant response rating (0 to 100 scale, 0 is no effect, 100 is complete control) ([2]; Preemergence) | Plant response rating, Ragweed [14, 26]
0: Plant response rating, Barnyardgrass [2, 24] | Plant response rating, Pigweed [4, 24] | Plant response rating, Ragweed [5, 24] | Ragweed plant response rating (0 to 100 scale, 0 is no effect, 100 is complete control) ([5]; Preemergence) | Plant response rating, Ryegrass, Italian [6, 24] | Ryegrass, Italian plant response rating (0 to 100 scale, 0 is no effect, 100 is complete control) ([6]; Preemergence) | Galium plant response rating ([7]; 125 g ai/ha, postemergence) | Plant response rating, Galium [7, 26] | Kochia plant response rating ([8]; 125 g ai/ha, postemergence) | Barnyardgrass plant response rating ([9]; postemergence) | Blackgrass plant response rating ([10]; postemergence) | Plant response rating, Blackgrass [10, 27] | Corn plant response rating ([11]; 125 g ai/ha, postemergence) | Foxtail, Giant plant response rating ([12]; 125 g ai/ha, postemergence) | Pigweed plant response rating ([13]; 125 g ai/ha, postemergence) | Plant response rating, Pigweed [13, 26] | Ragweed plant response rating ([14]; 125 g ai/ha, postemergence) | Ryegrass, Italian plant response rating ([15]; 125 g ai/ha, postemergence) | Plant response rating, Ryegrass, Italian [15, 26] | Wheat plant response rating ([16]; 125 g ai/ha, postemergence) | Plant response rating, Barnyardgrass [17] | Plant response rating, Rice [19] | Plant response rating, Sedge, Umbrella [20]
50: Plant response rating, Kochia [1, 24] | Kochia plant response rating (0 to 100 scale, 0 is no effect, 100 is complete control) ([1]; Preemergence) | Plant response rating, Barnyardgrass [9, 27] | Plant response rating, Foxtail, Giant [12, 26]
65: Plant response rating, Ducksalad [18]
